Source: patent US9783536B2, “Nitrogen-containing heterocyclic compound or salt thereof” (FUJIFILM Corporation, priority 2013, dated 2017)

Columns and labels:
Format in all cases: biochemical
[1] = biological target: T1, human PI3Kα protein (Homo sapiens, UniProt P42336); assay: PI3Kα enzyme assay (ADP-Glo); conditions: read-out: PI3Kα enzyme inhibitory activity
T1 construct: purchased Carna Biosciences, Inc; host or cells: baculovirus expression system
In short: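 Biotinylated human PI3Kα (baculovirus-expressed, 4.5 nmol/L) pre-incubated 15 min with compound in Tris-HCl pH 7.5, MgCl2, BSA; reaction 60 min at 25° C with 50 μmol/L PIP2 and 100 μmol/L ATP final. ADP quantified by ADP-Glo luminescence; IC50 calculated.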

[2] = biological target: T2, GST fusion human ERK2 protein (Homo sapiens, UniProt P28482); assay: ERK2 enzyme assay (1); conditions: ERK2 enzyme assay (1); read-out: ERK2 enzyme inhibitory activity (1)
T2 construct: purchased Carna Biosciences, Inc; host or cells: E. coli expression system
T2 sequence (P28482 whole entry, the tested form may be a part): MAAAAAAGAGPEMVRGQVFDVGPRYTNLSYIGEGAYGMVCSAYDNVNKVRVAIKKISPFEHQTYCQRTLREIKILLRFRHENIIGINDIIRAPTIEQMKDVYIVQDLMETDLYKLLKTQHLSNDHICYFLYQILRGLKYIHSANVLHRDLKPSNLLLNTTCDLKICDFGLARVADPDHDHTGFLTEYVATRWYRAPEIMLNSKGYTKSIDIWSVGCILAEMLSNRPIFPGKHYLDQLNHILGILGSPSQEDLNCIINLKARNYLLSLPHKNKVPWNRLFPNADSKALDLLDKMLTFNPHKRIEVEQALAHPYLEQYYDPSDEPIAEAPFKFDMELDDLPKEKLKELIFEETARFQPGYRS
In short: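 IC50 derived from the proportion of phosphorylated 5-FAM peptide, separated from unphosphorylated peptide by microfluidic mobility shift. Compound was first preincubated 15 min at room temperature with 2.5 nmol/L kinase at pH 7.5, then 43.1 μmol/L ATP plus 4.25 μmol/L substrate reacted 120 min at 25 °C.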

[3] = biological target: T2, GST fusion human ERK2 protein; assay: ERK2 enzyme assay (2); conditions: ERK2 enzyme assay (2); read-out: ERK2 enzyme inhibitory activity (2)
In short: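 IC50 values come from mobility-shift measurement of phosphorylated versus unphosphorylated 5-FAM peptide substrate after EDTA quench. Beforehand, compound and 1.25 nmol/L E. coli-expressed GST–human ERK2 stood 15 min at room temperature (pH 7.5), then 1 mmol/L ATP and 4.25 μmol/L substrate (final) were added for 120 min at 25 °C.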

T1 sequence (P42336 whole entry): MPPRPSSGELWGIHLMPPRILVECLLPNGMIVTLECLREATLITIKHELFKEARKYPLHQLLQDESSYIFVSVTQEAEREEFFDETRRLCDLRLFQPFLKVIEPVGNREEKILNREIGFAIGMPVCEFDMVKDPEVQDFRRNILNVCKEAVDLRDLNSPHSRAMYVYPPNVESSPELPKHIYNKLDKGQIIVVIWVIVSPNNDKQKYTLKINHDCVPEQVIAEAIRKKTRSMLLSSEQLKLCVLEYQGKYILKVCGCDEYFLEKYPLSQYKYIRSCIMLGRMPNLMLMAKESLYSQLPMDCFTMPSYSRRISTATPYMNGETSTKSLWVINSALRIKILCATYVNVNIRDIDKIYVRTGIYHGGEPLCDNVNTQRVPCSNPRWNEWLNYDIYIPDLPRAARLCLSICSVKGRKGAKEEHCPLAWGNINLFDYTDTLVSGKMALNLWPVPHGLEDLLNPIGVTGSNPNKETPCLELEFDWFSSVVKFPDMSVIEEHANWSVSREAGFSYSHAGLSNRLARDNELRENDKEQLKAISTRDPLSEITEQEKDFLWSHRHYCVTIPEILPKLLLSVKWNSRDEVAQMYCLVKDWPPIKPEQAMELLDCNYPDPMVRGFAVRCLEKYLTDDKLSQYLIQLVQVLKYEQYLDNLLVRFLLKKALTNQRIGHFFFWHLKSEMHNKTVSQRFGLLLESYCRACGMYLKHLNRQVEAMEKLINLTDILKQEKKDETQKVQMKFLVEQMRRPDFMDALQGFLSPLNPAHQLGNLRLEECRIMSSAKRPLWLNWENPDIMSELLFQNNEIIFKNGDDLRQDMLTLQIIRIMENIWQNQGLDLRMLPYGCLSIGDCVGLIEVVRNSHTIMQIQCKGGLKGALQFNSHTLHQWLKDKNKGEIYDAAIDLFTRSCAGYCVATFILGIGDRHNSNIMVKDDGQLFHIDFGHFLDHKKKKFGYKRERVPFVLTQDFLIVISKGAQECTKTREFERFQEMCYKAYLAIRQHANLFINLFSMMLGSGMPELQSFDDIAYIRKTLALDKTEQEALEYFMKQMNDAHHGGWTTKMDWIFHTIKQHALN
T1 sequence (P27986 whole entry partner): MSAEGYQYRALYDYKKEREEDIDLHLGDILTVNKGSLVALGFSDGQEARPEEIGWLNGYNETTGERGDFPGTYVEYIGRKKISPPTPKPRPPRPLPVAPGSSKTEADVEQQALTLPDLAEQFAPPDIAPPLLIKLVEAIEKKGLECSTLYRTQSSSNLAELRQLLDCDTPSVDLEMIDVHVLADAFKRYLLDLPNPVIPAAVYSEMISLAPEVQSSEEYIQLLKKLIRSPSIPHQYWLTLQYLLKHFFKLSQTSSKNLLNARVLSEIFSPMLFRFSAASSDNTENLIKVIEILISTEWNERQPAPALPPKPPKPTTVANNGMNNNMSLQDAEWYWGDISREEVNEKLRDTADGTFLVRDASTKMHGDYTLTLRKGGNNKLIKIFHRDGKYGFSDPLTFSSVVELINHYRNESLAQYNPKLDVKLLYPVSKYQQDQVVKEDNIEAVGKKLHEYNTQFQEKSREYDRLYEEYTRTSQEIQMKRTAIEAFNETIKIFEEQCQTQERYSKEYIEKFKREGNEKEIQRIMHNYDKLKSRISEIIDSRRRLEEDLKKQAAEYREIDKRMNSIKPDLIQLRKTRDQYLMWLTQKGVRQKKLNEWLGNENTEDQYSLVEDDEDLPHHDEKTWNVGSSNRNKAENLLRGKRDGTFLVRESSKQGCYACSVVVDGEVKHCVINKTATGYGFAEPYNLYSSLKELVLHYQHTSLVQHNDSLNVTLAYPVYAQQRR

Compound | IC50 [1] [nM] | IC50 [2] [nM] | IC50 [3] [nM]
Cn1cc(-c2cnc3ccc(Nc4nnc(C5CCNC5)s4)nc3c2)cn1 (stereo not drawn) [Example 0251] | 1000 to 10000 | < 1000 | < 1000
CN1CCC(c2nnc(Nc3ccc4ncc(-c5cnn(C)c5)cc4n3)s2)C1 (stereo not drawn) [Example 0252, N-(7-(1-methyl-1H-pyrazol-4-yl)-1,5-naphthyridin-2-yl)-5-(1-methylpyrrolidin-3-yl)-1,3,4-thiadiazole-2-amine] | 1000 to 10000 | < 1000 | < 1000
CC(=O)N1CCC(c2nnc(Nc3ccc4ncc(-c5cnn(C)c5)cc4n3)s2)C1 (stereo not drawn) [Example 0253, 1-(3-(5-((7-(1-Methyl-1H-pyrazol-4-yl)-1,5-naphthyridin-2-yl)amino)-1,3,4-thiadiazol-2-yl)pyrrolidin-1-yl)ethanone] | 1000 to 10000 | < 1000 | < 1000
Cn1cc(-c2cnc3ccc(Nc4nnc(CS(C)(=O)=O)s4)nc3c2)cn1 [Example 0257, N-(7-(1-methyl-1H-pyrazol-4-yl)-1,5-naphthyridin-2-yl)-5-((methylsulfonyl)methyl)-1,3,4-thiadiazole-2-amine] | 1000 to 10000 | < 1000 | < 1000
c1cc(-c2ccnc3ccc(Nc4nnc(CC5CCCO5)s4)nc23)ccn1 (stereo not drawn) [Example 0276] | < 1000 | < 1000 | 1000 to 10000
CC(C)(C)c1cnnc(Nc2ccc3ncc(-c4cnn(CCCN5CCCC5)c4)cc3n2)c1 [Example 0290] | < 1000 | < 1000 | < 1000
CC(C)Cc1cnnc(Nc2ccc3ncc(-c4cnn(CCCN5CCCC5)c4)cc3n2)c1 [Example 0292] | < 1000 | < 1000 | < 1000
CCC(C)c1cnnc(Nc2ccc3ncc(-c4cnn(CCCN5CCCC5)c4)cc3n2)c1 (stereo not drawn) [Example 0294] | < 1000 | < 1000 | < 1000
c1nc2ccc(Nc3cc(C4CC4)cnn3)nc2cc1-c1cnn(CCCN2CCCC2)c1 [Example 0295, N-(5-cyclopropylpyridazin-3-yl)-7-(1-(3-(pyrrolidin-1-yl)propyl)-1H-pyrazol-4-yl)-1,5-naphthyridine-2-amine] | < 1000 | < 1000 | < 1000
c1nc2ccc(Nc3nnc(C4CCCC4)s3)nc2cc1-c1cnn(CCCN2CCNCC2)c1 [Example 0303, 5-cyclopentyl-N-(7-(1-(3-(piperazin-1-yl)propyl)-1H-pyrazol-4-yl)-1,5-naphthyridin-2-yl)-1,3,4-thiadiazole-2-amine] | < 1000 | < 1000 | < 1000
c1nc2ccc(Nc3nnc(C4CCCC4)s3)nc2cc1N1CCOCC1 [Example 0311, 5-cyclopentyl-N-(7-morpholino-1,5-naphthyridin-2-yl)-1,3,4-thiadiazole-2-amine] | 1000 to 10000 | < 1000 | < 1000

More lines, now with the values ahead:

IC50 [1] [nM] | IC50 [2] [nM] | IC50 [3] [nM] | Compound
< 1000 | < 1000 | < 1000 | CS(=O)(=O)Cc1nnc(Nc2ccc3ncc(-c4cnn(CCCN5CCCC5)c4)cc3n2)s1 [Example 0258]
< 1000 | < 1000 | < 1000 | c1ccc(Cc2nnc(Nc3ccc4ncc(-c5cnn(CCCN6CCCC6)c5)cc4n3)s2)nc1 [Example 0261]
< 1000 | < 1000 | < 1000 | c1cncc(Cc2nnc(Nc3ccc4ncc(-c5cnn(CCCN6CCCC6)c5)cc4n3)s2)c1 [Example 0262]
< 1000 | < 1000 | < 1000 | CC(C)Cc1nnc(Nc2ccc3ncc(-c4cnn(CCCN5CCCC5)c4)cc3n2)s1 [Example 0265]
< 1000 | < 1000 | < 1000 | c1cc(Cc2nnc(Nc3ccc4ncc(-c5cnn(CCCN6CCCC6)c5)cc4n3)s2)ccn1 [Example 0266]
< 1000 | < 1000 | < 1000 | c1nc2ccc(Nc3nnc(CC4CCOC4)s3)nc2cc1-c1cnn(CCCN2CCCC2)c1 (stereo not drawn) [Example 0267]
